# Results taken from PMC8964227, “IP-Se-06, a Selenylated Imidazo[1,2-a]pyridine, Modulates Intracellular Redox State and Causes Akt/mTOR/HIF-1α and MAPK Signaling Inhibition, Promoting Antiproliferative Effect and Apoptosis in Glioblastoma Cells” (Oxidative Medicine and Cellular Longevity, 2022).
# Legend:
# [1] = system: A172 cells; assay: MTT cytotoxicity assay, A172; format: cell-based, human
# Description: (§1) Cell viability after treatments with selenylated imidazo[1,2-a]pyridines (IP-Se-01–IP-Se-10) was analyzed by quantitative colorimetric assay with MTT, according to Mosmann. IP-01, a prototype molecule without the addition of the selenium in its structure, was also tested. A172 and HT-22 cells were cultured in 96-well plates (10^4 cells/well). After confluence, cells were exposed to selenylated imidazo[1,2-a]pyridines (0.1, 1, 10, 100, and 1000 μM) for up to 72 h. After this phase, cell medium was removed and the cells were washed twice with PBS and incubated with MTT solution (0.5 mg/mL) for 2 h. The insoluble formazan was dissolved by adding DMSO (100 μL/well), and colorimetric determination of MTT reduction was measured at 550 nm in a multireader Infinite M200 Tecan. Three independent experiments were conducted, and the results are presented as IC50 (half maximal inhibitory concentration).
# [2] = system: HT-22 cells; assay: MTT cytotoxicity assay, HT-22; format: cell-based, mouse; conditions: 72 h
# Description: as §1
# [3] = system: reduced glutathione (GSH); assay: Reduced glutathione level in A172 cells (o-phthalaldehyde); format: cell-based, human; conditions: 1 μM, 6 h, vs control
# Description: To determine thioredoxin reductase (TrxR) activity and levels of reduced glutathione (GSH), glioblastoma cells were plated (4 × 10^5/well) into 12-well plates. At confluence, the cells were exposed at low concentration to IP-Se-06 (1 μM) for 6 h. After treatment time, cells were washed twice with PBS and resuspended with PBS/Triton 1%, centrifuged at 5000 g for 5 min and the supernatants were used for the determinations. All results were normalized by the protein content using the Bradford method.
# GSH was determined according to Hissin and Hilf using the fluorescent probe o-phthalaldehyde, which binds to free -SH groups forming the GS-OPT complex. This complex can be determined by fluorescence excitation at 350 nm and emission at 420 nm. Determinations were expressed in μGSH/μg protein.
# [4] = system: cytochrome c; assay: Western blotting cytochrome c (cytosolic fraction), A172 cells; format: cell-based, human; conditions: 1 μM, vs control
# Description: (§2) After treatment with IP-Se-06 (1 μM) for 48 h, A172 cells were harvested with a lysis buffer. The lysates were collected, and the total proteins present in the lysates were quantified according to Lowry. Proteins present in the cell lysates (30 μg) were subjected to SDS-polyacrylamide gel electrophoresis, followed by electroblotting to polyvinylidene fluoride (PVDF) membranes. Nonspecific binding was blocked by incubating the membrane with skimmed milk in TBS buffer containing 0.1% Tween 20 (TBS-T) for 1 h. After primary antibody incubation, membranes were incubated with appropriate HRP-conjugated secondary antibodies for 1 h at room temperature. Immunodetection was performed using an enhanced chemiluminescence (ECL) detection kit. Protein bands were visualized using ChemiDoc MP Imaging System (Bio-Rad) and quantified by densitometry using the freeware ImageJ by Wayne Rasband from the National Institute of Health (USA).
# [5] = system: A172 cells; assay: Cell cycle analysis (PI, flow cytometry); format: cell-based, human; conditions: 1 μM, 72 h, vs untreated
# Description: The PI/RNAse solution from the Immunostep® kit (Salamanca, Spain) was used to determine the DNA content of cells of the different phases of cell cycle by flow cytometry using the protocol proposed by the manufacturer. A172 cells were plated on 6-well plates at a density of 2 × 10^5/well until confluence and synchronization with nocodazole (30 ng/mL) for 14 h. The cells were treated with IP-Se-06 (1 μM) for 72 h, carefully washed with PBS, and fixed in cold ethanol (70%) overnight at -20°C. Finally, cells were washed again, resuspended in PI/RNAse solution, and incubated for 15 min at room temperature. Cells were analyzed using a BD FACSCanto II (BD Biosciences) flow cytometer. Data were processed using Flowing Software 2.5.1.
# [6] = system: p-Akt; assay: Western blotting p-Akt, A172 cells; format: cell-based, human; conditions: 1 μM, 48 h, vs control
# Description: as §2
# [7] = system: mTOR; assay: Western blotting mTOR, A172 cells; format: cell-based, human; conditions: 1 μM, 48 h, vs control
# Description: as §2
# [8] = system: HIF-1α; assay: Western blotting HIF-1α, A172 cells; format: cell-based, human; conditions: 1 μM, 48 h, vs control
# Description: as §2
# [9] = system: HIF-1α; assay: Immunocytochemistry staining for HIF-1α localization; format: cell-based, human; conditions: 1 μM, 48 h
# Description: A172 cells were treated with IP-Se-06 (1 μM) for 48 h, fixed with paraformaldehyde (4%) for 15 min and washed three times with PBS. The cells were then treated with blocking solution (0.5% BSA in PBS containing 0.3% of triton X-100) for 1 h at room temperature and incubated with rabbit polyclonal primary antibody HIF-1α (Cat. sc-10790, dilution 1 : 500) overnight at 4°C. Following this, the cells were washed three times with PBS and incubated with secondary antibody polyclonal goat anti-rabbit IgG antibody (Cat. AP132P, dilution 1 : 1000) for 1 h. The cell nuclei were stained with DAPI (3 μg/mL). The cell images were acquired from ten randomly chosen fields for each condition using an Olympus IX83 fluorescent microscope.
# [10] = system: A172 cells; assay: Clonogenic assay; format: cell-based, human; conditions: 1 μM, 72 h
# Description: To analyze the ability of the organoselenium compound to prevent cell proliferation and the progression of tumorigenesis, the methodology proposed by Franken and collaborators was used. In total, 500 cells per well were seeded in 6-well plates for 24 h. Before treatment with IP-Se-06, two groups were treated with the mitogen-activated protein kinase/ERK kinase inhibitor U0126 (Cell Signaling Technology, USA, Cat. #9903) at 10 μM for 1 h. A172 cells were exposed to IP-Se-06 (1 μM), while untreated cells were maintained as a control. After 72 h of incubation, the cells were washed with PBS, and fresh growth medium DMEM-F12 was added. At 7 days after treatment, colonies were fixed with 10% ethanol, stained with 0.5% crystal violet stain solution, manually counted, and photographed. Finally, cells were discolored with 1 mL of acetic acid 10% for 10 min, and the absorbance was measured at 590 nm in a multireader (Infinite M200 TECAN).
# [11] = system: ERK 1/2; assay: Western blotting ERK 1/2, A172 cells; format: cell-based, human; conditions: 1 μM, 48 h
# Description: as §2
# [12] = system: NLRP3; assay: Western blotting NLRP3, A172 cells; format: cell-based, human; conditions: 1 μM, 48 h, vs control
# Description: as §2
# [13] = system: caspase-1; assay: Western blotting caspase-1, A172 cells; format: cell-based, human; conditions: 1 μM, 48 h, vs control
# Description: as §2
# [14] = system: Ehrlich ascitic carcinoma; parameters: method as in PMID 33125183; conditions: 1 mg/kg, Ehrlich ascitic carcinoma-bearing mice; cited from earlier work
compound,measurement,setting,value
"COc1ccccc1[Se]c1c(-c2ccccc2)nc2cc(C)ccn12 [IP-Se-06, 3-((2-methoxyphenyl)selanyl)-7-methyl-2-phenylimidazol[1,2-a]pyridine]",approximate IC25 value,"[1]; A172, concentration used in further experiments",~1 µM
same,IC50,"[1]; Homo sapiens, A 172, 72 h, MTT",1.8 µM
same,Selectivity Index (SI),[1]; IC50 in normal cell line (HT-22)/IC50 in A172,36.5
same,cytotoxic activity on the mouse hippocampal cell line,[2]; in words,no significant cytotoxic activity
same,IC50,"[2]; Mus musculus, HT-22, MTT",65 µM
same,levels of GSH,[3],significantly decreased
same,levels of cytochrome c,[4],increased
same,G2/M phase cell population,[5],decrease
same,S phase,[5],no significant effect
same,cell population in the G1 phase,[5],increased
same,cell proportion in sub-G1 peak,[5],increased
same,levels of p-Akt,[6],significant reduction
same,levels of mTOR,[7],significant reduction
same,HIF-1α levels,[8],significantly decreased
same,HIF-1α localization,[9],seemed not to be translocated to the nucleus
same,number of cells in the colonies (absorbance 590 nm),"[10]; concomitantly with U0126 10 μM 1 h, vs treatments alone",even lower
same,number of cells in the colonies (absorbance 590 nm),[10]; vs control,decreased
same,rate of colony formation,[10]; vs nontreated,decreased
same,ERK 1/2 levels,"[11]; combination with U0126 10 μM 1 h, vs nontreated and U0126 alone",synergistic inhibition
same,ERK 1/2 levels,[11]; vs control,important reduction
same,levels of NLRP3,[12],decreased
same,levels of caspase-1,[13],decreased
same,angiogenesis,[14],inhibited angiogenesis
same,tumor growth,[14],growth inhibition of tumor
